In PMC6820371, “Terbium-161 for PSMA-targeted radionuclide therapy of prostate cancer” (European Journal of Nuclear Medicine and Molecular Imaging, 2019):
Marks after values point to notes of the source that are not given here.

Experiments:
[1] = Stability of radioligand incubated in saline (radiolytic degradation); type: physicochemical
Description: The radiolabeling of PSMA-617 (Advanced Biochemical Compounds, ABX GmbH, Radeberg, Germany) with ^161Tb was performed under standard labeling conditions (Supplementary material). […] The n-octanol/PBS distribution coefficient (logD) was determined for ^161Tb-PSMA-617 (Supplementary material). All of these experiments were performed as previously reported for ^177Lu-PSMA-617 [27].

[2] = test system: PSMA-positive PC-3 PIP tumor cells; assay: Tumor cell uptake and internalization; type: cell-based, human; conditions: for Internalized fraction: PC-3 PIP
[3] = test system: PC-3 PIP tumor-bearing mice; assay: Therapy study - assessment of potential early side effects; type: in vivo; set-up: key to Histology: Bone marrow sternum / Histology: Sternum (bone) / Histology: Bone marrow femur / Histology: Femur and tibia (bone) / Histology: Salivary glands / Histology: Mandibular lymph node: NHAIR: no histological abnormality is recognized; IC: increased cellularity, myeloid lineage; SH: Sinus histiocytosis; LH: lymphoid hyperplasia; 1: minimal severity; 2: mild; 3: moderate; 4: marked; 5: severe; conditions: for ALB (blood plasma) / ALP (blood plasma) / BUN (blood plasma) / CRE (blood plasma) / TBIL (blood plasma): at euthanasia; for Brain mass / Kidney mass / Liver mass / Spleen Mass: day of euthanasia; for Histology: Bone marrow femur / Histology: Bone marrow sternum / Histology: Femur and tibia (bone) / Histology: Mandibular lymph node / Histology: Salivary glands / Histology: Sternum (bone): individual mice M1-M6
Description: Potential early side-effects related to the exposure to radiation were evaluated by the assessment of absolute and relative (to body and to brain) organ weights, selected clinical chemistry plasma parameters including creatinine (CRE), blood urea nitrogen (BUN), alkaline phosphatase (ALP), total bilirubin (TBIL), and albumin (ALB), as well as via histological analysis of bone marrow and salivary glands. The data were analyzed for statistical significance (Supplementary material).
Body and organ mass and mass ratios: As a measure to identify undesired side effects, body weights were compared at the day when the first control mouse had to be euthanized (Day 18; Table S3). The relative body weight (RBW) and the relative tumor volume (RTV) were calculated as stated in the main manuscript. Kidneys, liver, spleen and brain were collected and weighed at the day of euthanasia when an endpoint was reached or at the end of the study at Day 84 (Table S3). The organ mass-to-body mass and the organ-mass-to-brain-mass ratios were calculated for kidneys, liver and spleen (Table S4). The average organ masses of mice from each group were analyzed for significance using a one-way ANOVA test with a Tukey’s post correction (GraphPad Prism software, version 7). A p-value of <0.05 was considered as statistically significant.
Blood plasma parameters: Blood was taken from the retrobulbar vein immediately before euthanasia for determination of blood plasma parameters. The values of creatinine (CRE), blood urea nitrogen (BUN), alkaline phosphatase (ALP), total bilirubin (BIL) and albumin (ALB) were determined in the plasma after centrifugation of the blood using a dry chemistry analyzer (DRI-CHEM 4000i, FUJIFILM, Japan) (Table S5). The average blood plasma parameters of each group were analyzed for significance using a one-way ANOVA test with a Tukey’s post correction (GraphPad Prism software, version 7). A p-value of <0.05 was considered as statistically significant.
Necropsy, tissue processing and histological examination: After euthanasia and exsanguination, mice were dissected and, after a full macroscopic examination, sternum, femur and salivary glands were quickly removed and fixed in 4% neutral-buffered formalin (Formafix, Hittnau, Switzerland). After adequate fixation, femoral and sternal bones were decalcified in 10% ethylenediamine tetraacetic acid over a period of 5 days. Both bones and the salivary glands were subsequently trimmed, dehydrated through graded alcohols and routinely paraffin wax embedded. Sections (3–5 µm) were prepared, mounted on glass slides and routinely stained with hematoxylin and eosin (HE). Microscopic findings in the HE-stained livers were classified with standard pathological nomenclature and grading system.

O=C([O-])CN1CCN(CC(=O)[O-])CCN(CC(=O)NCC2CCC(C(=O)NC(Cc3ccc4ccccc4c3)C(=O)NCCCCC(NC(=O)NC(CCC(=O)O)C(=O)O)C(=O)O)CC2)CCN(CC(=O)[O-])CC1.[161Tb+3] (centres unmarked) [^161Tb-PSMA-617]
Stability (intact radioligand) ([1]; 50 MBq/nmol, 250 MBq/500 μL, at least 1 h, without L-ascorbic acid): > 98%
Stability when incubated for longer time periods ([1]; 250 MBq/500 μL, longer than 1 h, without L-ascorbic acid): radiolytic degradation
Stability (intact radioligand) ([1]; in the presence of L-ascorbic acid, up to 24 h): ≥ 98%
PC-3 PIP tumor cell uptake ([2]; 2–4 h incubation): 47–54%
Uptake in PC-3 PIP tumor cells ([2]; 2 h incubation): 47%
Uptake in PC-3 PIP tumor cells ([2]; 4 h incubation): 54%
Internalized fraction ([2]; 2–4 h incubation): 8–11%
Internalized fraction ([2]; 2 h): 8%
Internalized fraction ([2]; 4 h): 11%
Body weight at Day 0 ([3]; 5.0 MBq): 17 ± 1.2 g
Body weight at Day 18 ([3]; 5.0 MBq): 17 ± 1.2 g
Body weight at Day of euthanasia ([3]; 5.0 MBq): 15 ± 1.7 g
Body weight over time ([3]; 5.0 MBq): body weight loss over time
Kidney-to-body ratio ([3]; 5.0 MBq): 0.014 ± 0.001
Kidney-to-brain ratio ([3]; 5.0 MBq): 0.50 ± 0.11
Liver-to-body ratios ([3]; 5.0 MBq): 0.048 ± 0.010
Liver-to-brain ratios ([3]; 5.0 MBq): 1.8 ± 0.71
Spleen-to-body ratios ([3]; 5.0 MBq): 0.004 ± 0.001
Spleen-to-brain ratios ([3]; 5.0 MBq): 0.16 ± 0.05
Undesired side-effects ([3]; 5.0 MBq and 10 MBq): no signs of undesired side-effects were detectable
ALB (blood plasma) ([3]; 5.0 MBq): 21 ± 1 g/L
ALP (blood plasma) ([3]; 5.0 MBq): 44 ± 1 U/L
BUN (blood plasma) ([3]; 5.0 MBq): 8.3 ± 0.50 mmol/L
CRE (blood plasma) ([3]; 5.0 MBq): <18 µmol/L
TBIL (blood plasma) ([3]; 5.0 MBq): 4 ± 1 µmol/L
Brain mass ([3]; 5.0 MBq): 371 ± 15 mg
Kidney mass ([3]; 5.0 MBq): 208 ± 19 mg
Liver mass ([3]; 5.0 MBq): 737 ± 143 mg
Spleen Mass ([3]; 5.0 MBq): 63 ± 13 mg
Histology: Bone marrow femur ([3]; 5 MBq): NHAIR
Histology: Bone marrow sternum ([3]; 5 MBq): NHAIR
Histology: Femur and tibia (bone) ([3]; 5 MBq): NHAIR
Histology: Mandibular lymph node ([3]; 5 MBq): NHAIR and SH 1 and LH 1
Histology: Salivary glands ([3]; 5 MBq): NHAIR
Histology: Sternum (bone) ([3]; 5 MBq): NHAIR
Histological changes in the bone marrow and the salivary glands attributable to application ([3]; 5.0 and 10 MBq/mouse): no histological changes
Blood plasma parameters compared to control group ([3]; 5.0 and 10 MBq/mouse, p>0.05): did not show any significant differences
Body weight at Day 0 ([3]; 10 MBq): 18 ± 1.0*^3) g
Body weight at Day 18 ([3]; 10 MBq): 19 ± 1.2*^4) g
Body weight at Day of euthanasia ([3]; 10 MBq): 19 ± 1.6*^5) g
Body weight over time ([3]; 10 MBq): remained stable
Kidney-to-body ratio ([3]; 10 MBq): 0.014 ± 0.001
Kidney-to-brain ratio ([3]; 10 MBq): 0.64 ± 0.09^*2)
Liver-to-body ratios ([3]; 10 MBq): 0.054 ± 0.002
Liver-to-brain ratios ([3]; 10 MBq): 2.5 ± 0.87
Spleen-to-body ratios ([3]; 10 MBq): 0.005 ± 0.001
Spleen-to-brain ratios ([3]; 10 MBq): 0.23 ± 0.05^*3)
ALB (blood plasma) ([3]; 10 MBq): 19 ± 1 g/L
ALP (blood plasma) ([3]; 10 MBq): 54 ±15 U/L
BUN (blood plasma) ([3]; 10 MBq): 7.8 ± 1.3 mmol/L
CRE (blood plasma) ([3]; 10 MBq): <18 µmol/L
TBIL (blood plasma) ([3]; 10 MBq): 4 ± 1 µmol/L
Brain mass ([3]; 10 MBq): 402 ± 18 mg
Kidney mass ([3]; 10 MBq): 258 ± 41*^5) mg
Liver mass ([3]; 10 MBq): 994 ± 65*^5) mg
Spleen Mass ([3]; 10 MBq): 92 ± 22*^5) mg
Histology: Bone marrow femur ([3]; 10 MBq): NHAIR
Histology: Bone marrow sternum ([3]; 10 MBq): IC 1 and NHAIR
Histology: Femur and tibia (bone) ([3]; 10 MBq): NHAIR
Histology: Mandibular lymph node ([3]; 10 MBq): SH 2 LH 1 and SH 1 and LH 1 and NHAIR
Histology: Salivary glands ([3]; 10 MBq): NHAIR
Histology: Sternum (bone) ([3]; 10 MBq): NHAIR
